Tested on: placenta
Test: Placental histopathology
Assay type: in vivo, mouse (CD-1)
Details: for Lowest dose tested resulting in adverse placental pathology: this study
Description: Dam livers, kidneys, and placentas were trimmed and embedded by the NIEHS Mouse Embryo Phenotyping Core. Tissues collected at necropsy were fixed in 4% PFA for 72 h and paraffin embedded, and 5-μm sections were prepared and stained with hematoxylin and eosin (H&E). Pathology was evaluated and a pathology review conducted by S.A.E. Diplomate American College of Veterinary Pathologists (DACVP). Pathology reviews were conducted as an informed approach analysis [e.g., nonblinded analysis; see Sills et al. ([2019])]. Select tissue slides were scanned using the AT2 Scanner (Aperio). Images were then captured for publication using the ImageScope software; version 12.3.0.5056 (Aperio). Serum and urine obtained from dams in Block 2 were analyzed using the AU480 clinical chemistry analyzer (Beckman Coulter Inc.). Reagents and calibration standards used to measure alkaline phosphatase (ALP), alanine aminotransferase (ALT), aspartate aminotransferase (AST), blood urea nitrogen (BUN), serum creatinine, urine creatinine, glucose (Glu), total protein (TP), triglyceride (Trig), high-density lipoprotein (HDL), cholesterol (Chol), and albumin (ALB) were purchased from Beckman Coulter Inc. Reagents for sorbitol dehydrogenase (SDH), total bile acid (TBA), and micro-TP were purchased from Sekisui Diagnostics. The reagent used to measure low-density lipoprotein (LDL) was purchased form Diazyme Laboratories.
Histopathological lesions of evaluated placenta were evaluated using two statistical approaches. The first approach assumed the absence of litter effects and considered each placenta evaluated within a treatment group to be a totally independent observation, regardless of its litter of origin. […] The second approach considered the litter as the biological unit and compared the relative incidence of placental lesions [e.g., percent within normal limits (WNL)] to adjust for differences in the total number of observations across litters within and between treatment groups. […] Both approaches were subjected to simultaneous tests for general linear hypotheses to correct for multiple comparisons using Tukey contrasts in the package multcomp ([Hothorn et al. 2009]).

N.O=C(O)C(F)(OC(F)(F)C(F)(F)C(F)(F)F)C(F)(F)F (centres unmarked) [GenX, ammonium 2,3,3,3-tetrafluoro-2-(heptafluoropropoxy)propanoate]
Early fibrin clot: No. (E11.5, 2 mg/kg/d): 1 | Labyrinth atrophy: % (E11.5, 2 mg/kg/d): 0% | Labyrinth atrophy: No. (E11.5, 2 mg/kg/d): 0 | Labyrinth congestion: % (E11.5, 2 mg/kg/d): 0% | Labyrinth congestion: No. (E11.5, 2 mg/kg/d): 0 | Labyrinth necrosis: % (E11.5, 2 mg/kg/d): 0% | Labyrinth necrosis: No. (E11.5, 2 mg/kg/d): 0 | Mean WNL per litter (%) (E11.5, 2 mg/kg/d): 95.6% | Mean WNL ± SD per litter (E11.5, 2 mg/kg/d): 8.2 ± 2.8 | Mean abnormal per litter (%) (E11.5, 2 mg/kg/d): 4.4% | Mean abnormal ± SD per litter (E11.5, 2 mg/kg/d): 0.4 ± 0.9 | Other placental lesions: % (E11.5, 2 mg/kg/d): 2.3% | Other placental lesions: No. (E11.5, 2 mg/kg/d): 1 | Placental nodule: % (E11.5, 2 mg/kg/d): 0% | Placental nodule: No. (E11.5, 2 mg/kg/d): 0 | Placentas WNL: % (E11.5, 2 mg/kg/d): 95.3% | Placentas WNL: No. (E11.5, 2 mg/kg/d): 41 | Placentas abnormal: % (E11.5, 2 mg/kg/d): 4.7% | Placentas abnormal: No. (E11.5, 2 mg/kg/d): 2 | Early fibrin clot: % (E11.5, 10 mg/kg/d): 0% | Early fibrin clot: No. (E11.5, 10 mg/kg/d): 0 | Labyrinth atrophy: % (E11.5, 10 mg/kg/d): 0% | Labyrinth atrophy: No. (E11.5, 10 mg/kg/d): 0 | Labyrinth congestion: % (E11.5, 10 mg/kg/d): 0% | Labyrinth congestion: No. (E11.5, 10 mg/kg/d): 0 | Labyrinth necrosis: % (E11.5, 10 mg/kg/d): 0% | Labyrinth necrosis: No. (E11.5, 10 mg/kg/d): 0 | Mean WNL per litter (%) (E11.5, 10 mg/kg/d): 97.1% | Mean WNL ± SD per litter (E11.5, 10 mg/kg/d): 6.0 ± 3.1 | Mean abnormal per litter (%) (E11.5, 10 mg/kg/d): 0% | Mean abnormal ± SD per litter (E11.5, 10 mg/kg/d): 0 ± 0.0 | Other placental lesions: % (E11.5, 10 mg/kg/d): 0% | Other placental lesions: No. (E11.5, 10 mg/kg/d): 0 | Placental nodule: % (E11.5, 10 mg/kg/d): 0% | Placental nodule: No. (E11.5, 10 mg/kg/d): 0 | Placentas WNL: % (E11.5, 10 mg/kg/d): 100% | Placentas WNL: No. (E11.5, 10 mg/kg/d): 30 | Placentas abnormal: % (E11.5, 10 mg/kg/d): 0.0% | Placentas abnormal: No. (E11.5, 10 mg/kg/d): 0 | Early fibrin clot: % (E17.5, 2 mg/kg/d): 3.2% | Early fibrin clot: No. (E17.5, 2 mg/kg/d): 1 | Labyrinth atrophy: % (E17.5, 2 mg/kg/d): 48.4% | Labyrinth atrophy: No. (E17.5, 2 mg/kg/d): 15 | Labyrinth congestion: % (E17.5, 2 mg/kg/d): 3.2% | Labyrinth congestion: No. (E17.5, 2 mg/kg/d): 1 | Labyrinth necrosis: % (E17.5, 2 mg/kg/d): 0% | Labyrinth necrosis: No. (E17.5, 2 mg/kg/d): 0 | Mean WNL per litter (%) (E17.5, 2 mg/kg/d): 51.7% | Mean WNL ± SD per litter (E17.5, 2 mg/kg/d): 2.6 ± 2.8 | Mean abnormal per litter (%) (E17.5, 2 mg/kg/d): 48.3% | Mean abnormal ± SD per litter (E17.5, 2 mg/kg/d): 3.6 ± 3.6 | Other placental lesions: % (E17.5, 2 mg/kg/d): 0% | Other placental lesions: No. (E17.5, 2 mg/kg/d): 0 | Placental nodule: % (E17.5, 2 mg/kg/d): 3.2% | Placental nodule: No. (E17.5, 2 mg/kg/d): 1 | Placentas WNL: % (E17.5, 2 mg/kg/d): 41.9% | Placentas WNL: No. (E17.5, 2 mg/kg/d): 13 | Placentas abnormal: % (E17.5, 2 mg/kg/d): 58.1% | Placentas abnormal: No. (E17.5, 2 mg/kg/d): 18 | Early fibrin clot: % (E17.5, 10 mg/kg/d): 11.4% | Early fibrin clot: No. (E17.5, 10 mg/kg/d): 4 | Labyrinth atrophy: % (E17.5, 10 mg/kg/d): 45.7% | Labyrinth atrophy: No. (E17.5, 10 mg/kg/d): 16 | Labyrinth congestion: % (E17.5, 10 mg/kg/d): 22.9% | Labyrinth congestion: No. (E17.5, 10 mg/kg/d): 8 | Labyrinth necrosis: % (E17.5, 10 mg/kg/d): 2.9% | Labyrinth necrosis: No. (E17.5, 10 mg/kg/d): 1 | Mean WNL per litter (%) (E17.5, 10 mg/kg/d): 12.0% | Mean WNL ± SD per litter (E17.5, 10 mg/kg/d): 1.2 ± 2.7 | Mean abnormal per litter (%) (E17.5, 10 mg/kg/d): 88.0% | Mean abnormal ± SD per litter (E17.5, 10 mg/kg/d): 5.8 ± 3.0 | Other placental lesions: % (E17.5, 10 mg/kg/d): 0% | Other placental lesions: No. (E17.5, 10 mg/kg/d): 0 | Placental nodule: % (E17.5, 10 mg/kg/d): 0% | Placental nodule: No. (E17.5, 10 mg/kg/d): 0 | Placentas WNL: % (E17.5, 10 mg/kg/d): 17.1% | Placentas WNL: No. (E17.5, 10 mg/kg/d): 6 | Placentas abnormal: % (E17.5, 10 mg/kg/d): 82.9% | Placentas abnormal: No. (E17.5, 10 mg/kg/d): 29 | Lowest dose tested resulting in adverse placental pathology: 2 mg/kg/d

O=C(O)C(F)(F)C(F)(F)C(F)(F)C(F)(F)C(F)(F)C(F)(F)C(F)(F)F [PFOA, Perfluorooctanoic acid]
Early fibrin clot: % (E11.5, 1 mg/kg/d): 0% | Early fibrin clot: No. (E11.5, 1 mg/kg/d): 0 | Labyrinth atrophy: % (E11.5, 1 mg/kg/d): 0% | Labyrinth atrophy: No. (E11.5, 1 mg/kg/d): 0 | Labyrinth congestion: % (E11.5, 1 mg/kg/d): 0% | Labyrinth congestion: No. (E11.5, 1 mg/kg/d): 0 | Labyrinth necrosis: % (E11.5, 1 mg/kg/d): 0% | Labyrinth necrosis: No. (E11.5, 1 mg/kg/d): 0 | Mean WNL per litter (%) (E11.5, 1 mg/kg/d): 98.0% | Mean WNL ± SD per litter (E11.5, 1 mg/kg/d): 6.4 ± 1.9 | Mean abnormal per litter (%) (E11.5, 1 mg/kg/d): 2.0% | Mean abnormal ± SD per litter (E11.5, 1 mg/kg/d): 0.2 ± 0.4 | Other placental lesions: % (E11.5, 1 mg/kg/d): 3.0% | Other placental lesions: No. (E11.5, 1 mg/kg/d): 1 | Placental nodule: % (E11.5, 1 mg/kg/d): 0% | Placental nodule: No. (E11.5, 1 mg/kg/d): 0 | Placentas WNL: % (E11.5, 1 mg/kg/d): 97.0% | Placentas WNL: No. (E11.5, 1 mg/kg/d): 32 | Placentas abnormal: % (E11.5, 1 mg/kg/d): 3.0% | Placentas abnormal: No. (E11.5, 1 mg/kg/d): 4 | Early fibrin clot: % (E11.5, 5 mg/kg/d): 0% | Early fibrin clot: No. (E11.5, 5 mg/kg/d): 0 | Labyrinth atrophy: % (E11.5, 5 mg/kg/d): 8.3% | Labyrinth atrophy: No. (E11.5, 5 mg/kg/d): 3 | Labyrinth congestion: % (E11.5, 5 mg/kg/d): 0% | Labyrinth congestion: No. (E11.5, 5 mg/kg/d): 0 | Labyrinth necrosis: % (E11.5, 5 mg/kg/d): 2.7% | Labyrinth necrosis: No. (E11.5, 5 mg/kg/d): 1 | Mean WNL per litter (%) (E11.5, 5 mg/kg/d): 88.3% | Mean WNL ± SD per litter (E11.5, 5 mg/kg/d): 6.4 ± 1.7 | Mean abnormal per litter (%) (E11.5, 5 mg/kg/d): 11.7% | Mean abnormal ± SD per litter (E11.5, 5 mg/kg/d): 1.0 ± 1.4 | Other placental lesions: % (E11.5, 5 mg/kg/d): 0% | Other placental lesions: No. (E11.5, 5 mg/kg/d): 0 | Placental nodule: % (E11.5, 5 mg/kg/d): 0% | Placental nodule: No. (E11.5, 5 mg/kg/d): 0 | Placentas WNL: % (E11.5, 5 mg/kg/d): 88.9% | Placentas WNL: No. (E11.5, 5 mg/kg/d): 32 | Placentas abnormal: % (E11.5, 5 mg/kg/d): 11.1% | Placentas abnormal: No. (E11.5, 5 mg/kg/d): 4 | Early fibrin clot: % (E17.5, 1 mg/kg/d): 0% | Early fibrin clot: No. (E17.5, 1 mg/kg/d): 0 | Labyrinth atrophy: % (E17.5, 1 mg/kg/d): 0% | Labyrinth atrophy: No. (E17.5, 1 mg/kg/d): 0 | Labyrinth congestion: % (E17.5, 1 mg/kg/d): 0% | Labyrinth congestion: No. (E17.5, 1 mg/kg/d): 0 | Labyrinth necrosis: % (E17.5, 1 mg/kg/d): 3.1% | Labyrinth necrosis: No. (E17.5, 1 mg/kg/d): 1 | Mean WNL per litter (%) (E17.5, 1 mg/kg/d): 91.4% | Mean WNL ± SD per litter (E17.5, 1 mg/kg/d): 5.8 ± 1.3 | Mean abnormal per litter (%) (E17.5, 1 mg/kg/d): 8.6% | Mean abnormal ± SD per litter (E17.5, 1 mg/kg/d): 0.6 ± 0.9 | Other placental lesions: % (E17.5, 1 mg/kg/d): 0% | Other placental lesions: No. (E17.5, 1 mg/kg/d): 0 | Placental nodule: % (E17.5, 1 mg/kg/d): 6.3% | Placental nodule: No. (E17.5, 1 mg/kg/d): 2 | Placentas WNL: % (E17.5, 1 mg/kg/d): 90.6% | Placentas WNL: No. (E17.5, 1 mg/kg/d): 29 | Placentas abnormal: % (E17.5, 1 mg/kg/d): 9.4% | Placentas abnormal: No. (E17.5, 1 mg/kg/d): 3 | Early fibrin clot: % (E17.5, 5 mg/kg/d): 2.5% | Early fibrin clot: No. (E17.5, 5 mg/kg/d): 1 | Labyrinth atrophy: % (E17.5, 5 mg/kg/d): 7.5% | Labyrinth atrophy: No. (E17.5, 5 mg/kg/d): 3 | Labyrinth congestion: % (E17.5, 5 mg/kg/d): 57.5% | Labyrinth congestion: No. (E17.5, 5 mg/kg/d): 23 | Labyrinth necrosis: % (E17.5, 5 mg/kg/d): 0% | Labyrinth necrosis: No. (E17.5, 5 mg/kg/d): 0 | Mean WNL per litter (%) (E17.5, 5 mg/kg/d): 38.1% | Mean WNL ± SD per litter (E17.5, 5 mg/kg/d): 2.2 ± 2.7 | Mean abnormal per litter (%) (E17.5, 5 mg/kg/d): 61.9% | Mean abnormal ± SD per litter (E17.5, 5 mg/kg/d): 4.5 ± 3.8 | Other placental lesions: % (E17.5, 5 mg/kg/d): 0% | Other placental lesions: No. (E17.5, 5 mg/kg/d): 0 | Placental nodule: % (E17.5, 5 mg/kg/d): 0% | Placental nodule: No. (E17.5, 5 mg/kg/d): 0 | Placentas WNL: % (E17.5, 5 mg/kg/d): 32.5% | Placentas WNL: No. (E17.5, 5 mg/kg/d): 13 | Placentas abnormal: % (E17.5, 5 mg/kg/d): 67.5% | Placentas abnormal: No. (E17.5, 5 mg/kg/d): 27 | Lowest dose tested resulting in adverse placental pathology: 5 mg/kg/d
